Values of other authors in US12220423B2, “Compounds, derivatives, and analogs for cancer” (HYGIA PHARMACEUTICALS, LLC, priority 2018, dated 2025).

System: KRAS
Conditions: K-562 cells treated with 750 micromolars of IP6 for 60 min; p<0.05

In the case of O=P(O)(O)O[C@H]1[C@H](OP(=O)(O)O)[C@@H](OP(=O)(O)O)[C@H](OP(=O)(O)O)[C@@H](OP(=O)(O)O)[C@H]1OP(=O)(O)O [myo inositol hexaphosphate], the “down regulation of KRAS and other relevant genes” value is listed as “down regulates KRAS and other relevant genes significantly”.
